Measurements: patent publication US5461036A, “Spicamycin derivatives and their use as anticancer agents” (priority 1991, dated 1995)
Where two headings read alike, the source gives them in different places.

Columns and labels:
nude mice = assay: in vivo; set-up: species or system nude mice (BALB/c nu/nu); details: intravenous, continuous 5 days, maximum dose at which no animal was dead within 2 weeks, 20160 min
Protocol: (§1) (1) Measurement of maximum tolerated dose (MTD) of the spicamycin derivatives in nude mice
(§2) The spicamycin derivative was dissolved in dimethylsulfoxide (DMSO) and Cremophor EL® at the same volume as DMSO was added. Physiological saline was added so that the concentration of DMSO and Cremophor EL® was finally adjusted to 1%, respectively, and thus injection liquids of spicamycin derivative in a variety of concentrations were prepared. […] The maximum dose at which no animal was dead was defined as the MTD of the respective derivatives.

[1] = tested on: human colon cancer (COL-1); type: in vivo, mouse
Protocol: (2) Method for measuring the antitumor effect on human colon cancer (COL-1)
COL-1, a human colon cancer, was transplanted subcutaneously into nude mice. When the tumor had grown to a volume of about 100 mm^3, the nude mice were divided into groups of 5 animals so that the average tumor volumes of respective groups were equalized. The respective spicamycin derivatives were administered to test groups at their MTDs, while physiological saline (solvent) containing 1% DMSO and 1% Cremophor EL® was administered to the control group. […] RV is expressed as RV =Vn/Vo where Vn is the tumor volume on day n and Vo is the initial tumor volume at the time treatment was commenced.

Acute toxicity (LD50) = details: mouse, in vivo; intravenous, ICR mice (female, 6 weeks old), 14 days observation, Litchfield and Wilcoxon
Text: The LD50 was obtained from the mortalities at the respective dosage groups by the Litchfield and Wilcoxon's method.

in vivo = assay: in vivo; set-up: species or system nude mice (BALB/c nu/nu); details: mouse, in vivo; intravenous, continuous 5 days, nude mice; maximum dose at which no animal was dead within 2 weeks; read-out: Maximum tolerated dose
Protocol: as §1, §2

L1210 mouse leukemia = details: in vivo; cited from earlier work
Walker 256 rat sarcoma = details: in vivo; cited from earlier work
[2] = /minimum effective dose (effective: TGIR≥50)
[3] = COL-1 s.c. in nude mice, at MTD, TGIR=(1-Tx/Cx)×100, maximum during about 3 weeks
[4] = COL-1 s.c. in nude mice, at MTD, minimum throughout the test period

SMILES	Maximum tolerated dose (nude mice) [mg/kg/day]	Therapeutic index [1, 2]	TGIR (tumor growth inhibition rate, maximum) ([1]; in vivo, sc)	minTx (relative tumor volume when reduced to the minimum) ([1]; in vivo, sc)	LD50 at 336 h (Acute toxicity (LD50)) [mg/kg]	MTD at 336 h (in vivo) [mg/kg/day]	TGIR (tumor growth inhibition rate, maximum) [1, 3]	minTx (relative tumor volume when reduced to the minimum) [1, 4]	Therapeutic index ([1]; mouse, in vivo)	antitumor activity against L1210 mouse leukemia (L1210 mouse leukemia)	antitumor activity against Walker 256 rat sarcoma (Walker 256 rat sarcoma)
CCCCCCCCC/C=C/C=C/C(=O)NCC(=O)N[C@@H]1[C@@H](O)[C@@H](O)[C@@H](Nc2ncnc3[nH]cnc23)O[C@H]1C(O)CO (stereo partly drawn) [SPK241, 6-[4'-N-(N'-trans,trans-2,4-tetradecadienoylglycyl)spicaminyl-amino]purine]	6	16	97	0.14	110						
O=C(CCCCCCCCCCCOc1ccccc1)NCC(=O)NC1C(O)C(O)C(Nc2ncnc3[nH]cnc23)OC1C(O)CO (stereo not drawn) [SPK249, 6-[4'-N-(N'-12-phenoxydodecanoylglycyl)-spicaminyl-amino]purine]						3	88	0.26	4		
CC(C)CCCCCCCCCC(=O)NCC(=O)N[C@@H]1[C@@H](O)[C@@H](O)[C@@H](Nc2ncnc3[nH]cnc23)O[C@H]1C(O)CO (stereo partly drawn) [SPK251, 6-[4'-N-(N'-11-methyldodecanoylglycyl)spicaminyl-amino]purine]						6	97		8		
O=C(CCCCCCCCC#Cc1cccs1)NCC(=O)NC1C(O)C(O)C(Nc2ncnc3[nH]cnc23)OC1C(O)CO (stereo not drawn) [SPK262, 6-{4'-N-[N'-11-(2'-thienyl)-10-undecynoylglycyl]spicaminyl-amino}purine]						8	99	0.03	4		
O=C(CCCCCCCCC#Cc1ccsc1)NCC(=O)NC1C(O)C(O)C(Nc2ncnc3[nH]cnc23)OC1C(O)CO (stereo not drawn) [SPK263, 6-{4,-N-[N'-11-(3'-thienyl)-10-undecynoylglycyl]spicaminyl-amino}purine]						12	97	0.09	8		
O=C(CCCCCCCCC#Cc1ccoc1)NCC(=O)NC1C(O)C(O)C(Nc2ncnc3[nH]cnc23)OC1C(O)CO (stereo not drawn) [SPK266, 6-{4'-N-[N'-11-(3'-furyl)-10-undecynoylglycyl]spicamynyl-amino}purine]						12	97	0.18	8		
CCCCCCCCCCC[C@@H](O)CC(=O)NCC(=O)NC1C(O)C(O)C(Nc2ncnc3[nH]cnc23)OC1C(O)CO (stereo partly drawn) [SPK270, 6-[4'-N-(N'-(R)-3-hydroxytetradecanoylglycyl)spicaminyl-amino]purine]						12	94	0.21	4		
CCCCCCCCCCCCCC[C@H](O)C(=O)NCC(=O)NC1C(O)C(O)C(Nc2ncnc3[nH]cnc23)OC1C(O)CO (stereo partly drawn) [SPK271, 6-[4'-N-(N'-(S)-2-hydroxyhexadecanoylglycyl)spicaminyl-amino]purine]		8				2	99	0.09			
O=C(CCCCCCCCCCCCCBr)NCC(=O)N[C@@H]1[C@@H](O)[C@@H](O)[C@@H](Nc2ncnc3[nH]cnc23)O[C@H]1C(O)CO (stereo partly drawn) [SPK273, 6-[4'-N-(N'-14-bromotetradecanoylglycyl)spicaminyl-amino]purine]						12	98	0.11	8		
O=C(CCCCCCCCCCCCBr)NCC(=O)N[C@@H]1[C@@H](O)[C@@H](O)[C@@H](Nc2ncnc3[nH]cnc23)O[C@H]1C(O)CO (stereo partly drawn) [SPK276, 6-[4'-N-(N'-13-bromotridecanoylglycyl)spicaminyl-amino]purine]						12	96	0.16	8		
O=C(CCCCCCCCCCCCCl)NCC(=O)N[C@@H]1[C@@H](O)[C@@H](O)[C@@H](Nc2ncnc3[nH]cnc23)O[C@H]1C(O)CO (stereo partly drawn) [SPK278, 6-[4'-N-(N'-13-chlorotridecanoylglycyl)spicaminyl-amino]purine]						12	92	0.21	8		
O=C(CCCCCCCCCCCCCF)NCC(=O)N[C@@H]1[C@@H](O)[C@@H](O)[C@@H](Nc2ncnc3[nH]cnc23)O[C@H]1C(O)CO (stereo partly drawn) [SPK279, 6-[4,-N-(N,-14-fluorotetradecanoylglycyl)spicaminyl-amino]purine]						6	93	0.25	8		
O=C(CCCCCCCCCCCCCCl)NCC(=O)N[C@@H]1[C@@H](O)[C@@H](O)[C@@H](Nc2ncnc3[nH]cnc23)O[C@H]1C(O)CO (stereo partly drawn) [SPK280, 6-[4'-N-(N'-14-chlorotetradecanoylglycyl)spicaminyl-amino]purine]						9	94	0.19	8		
CCCCCCCC/C=C/C=C/C(=O)NCC(=O)N[C@@H]1[C@@H](O)[C@@H](O)[C@@H](Nc2ncnc3[nH]cnc23)O[C@H]1C(O)CO (stereo partly drawn) [SPK281, 6-[4'-N-(N'-trans,trans-2,4-tridecadienoylglycyl)spicaminyl-amino]purine]						18	99	0.06	8		
CCCCCCC/C=C/C=C/C(=O)NCC(=O)N[C@@H]1[C@@H](O)[C@@H](O)[C@@H](Nc2ncnc3[nH]cnc23)O[C@H]1C(O)CO (stereo partly drawn) [SPK282, 6-[4'-N-(N'-trans,trans-2,4-dodecadienoylglycyl)spicaminyl-amino]purine]						36	99	0.07	16		
O=C(CCCCCCCCCCOc1ccccc1)NCC(=O)NC1C(O)C(O)C(Nc2ncnc3[nH]cnc23)OC1C(O)CO (stereo not drawn) [SPK422, 6-[4'-N-(N'-11-phenoxyundecanoylglycyl)-spicaminyl-amino]purine]						3.4	95		4		
CCCCCCCCCCCC(=O)NCC(=O)NC1C(O)C(O)C(Nc2ncnc3[nH]cnc23)OC1C(O)CO (stereo not drawn) [SPM8, reference compound]						10.4	94	0.19	4		
CCCCCCCCCCCCC(=O)NCC(=O)N[C@@H]1[C@@H](O)[C@@H](O)[C@@H](Nc2ncnc3[nH]cnc23)O[C@H]1C(O)CO (stereo partly drawn) [SPM9, 6-[4 '-N-(N'-tridecanoylglycyl)spicaminyl-amino]purine]						3.4	99	0.05	6		
CCCCCCCCCCCCCC(=O)NCC(=O)N[C@@H]1[C@@H](O)[C@@H](O)[C@@H](Nc2ncnc3[nH]cnc23)O[C@H]1C(O)CO (stereo partly drawn) [SPM10, 6-[4 ,-N-(N'-tetradecanoylglycyl)spicaminyl-amino]purine]		4				2.6	98	0.10			
CCCCCCCCC/C=C/C=C/C(=O)NCC(=O)NC1C(O)C(O)C(Nc2ncnc3[nH]cnc23)OC1C(O)CO (stereo not drawn) [SPT241, 6-[4 -N-(N'-trans,trans-2,4-tetradecadienylglycyl)-septaminyl-amino]purine]						3	93	0.24	8		
CC(C)CCCCCCCCCCCCC(=O)NCC(=O)NC1C(O)C(O)C(Nc2ncnc3nc[nH]c23)OC1C(O)CO (stereo not drawn) [septacidin]										no antitumor activity	no antitumor activity
